Data on four molecules can be found in article PMC7027461 (Clinical Pharmacology in Drug Development, 2020).

Details of data set [1]: method as in PMID 19738123. Particulars: uncoated tablet formulation; cited from earlier work.
On the set-up of data set [2]: method as in ref 29 = [29]; 29 U.S. Food and Drug Administration . Application Number: 211349Orig1s000; Multi‐Discipline Review. https://www.accessdata.fda.gov/drugsatfda_docs/nda/2018/211349Orig1s000MultidisciplineR.pdf . Publi. As to conditions: single 40‐mg tablet; cited from earlier work.
On the set-up of data set [3]: method as in ref 23 = [23]; 23 U.S. Food and Drug Administration . Application Number: 207997Orig1s000; 207997Orig2s000. Clinical Pharmacology and Biopharmaceutics Review(s). Available at: https://www.accessdata.fda.gov/drugsatf. Particulars: single 50‐mg dose, cited from earlier work.
On the set-up of data set [4]: method as in data on file, Daiichi Sankyo, Inc. Particulars: ref data on file, Daiichi Sankyo, Inc; cited from earlier work.
Details of data set [5]: method as in data on file, Daiichi Sankyo, Inc. Particulars: subjects with AML; ref data on file, Daiichi Sankyo, Inc; cited from earlier work.
For data set [6] the following is noted: BCS classification; no reference given; cited from earlier work.
Another data set deals with cytochrome P450 3A. Particulars: cited from earlier work.
Data set [7] in a line: Safety assessments (AEs, ECG/QTcF, vital signs, laboratory tests) in the food-effect study. The class given is in vivo, human. The procedure: All randomized subjects who received quizartinib were included in the safety analysis population. Safety assessments included physical examinations, vital signs, 12‐lead ECGs, adverse event (AE) evaluations, and clinical laboratory tests. Hematology, chemistry, serology, and urinalysis tests were performed by a local laboratory. AEs and laboratory tests were graded and summarized based on National Cancer Institute Common Terminology Criteria for Adverse Events version 4.03 and assessed for severity, relation to study drugs, and clinical significance.

The conditions of data set [8]: prior knowledge used for the study design and sampling duration; no reference given; cited from earlier work.

Where “and” joins values, the source holds several entries; their conditions need not be identical. Identical values can stand only once. Entries after “also recorded” stand apart in the source; their conditions may differ. Like-named read-outs stand apart in the source and are kept apart here. Bounds are passed on as bounds.

On to `CC1(COc2ccc3c(c2)ncn3-c2ccc3cccc(N4CCC(N)CC4)c3n2)COC1` [crenolanib], for which, in data set [1], the “effect of food on interpatient variability of Cmax and AUCinf” value was “increased”; the “effect of food on terminal half‐life” value was “no effects”; the “effect of food on tmax” value is on record as “delays”.

As for `CCc1nc(C(N)=O)c(Nc2ccc(N3CCC(N4CCN(C)CC4)CC3)c(OC)c2)nc1NC1CCOCC1` [gilteritinib], in data set [2], the “decrease in AUC with a high‐fat meal vs the fasted state” value is given as less than 10%, the “decrease in Cmax with a high‐fat meal vs the fasted state” value was 26% and the “delay in median tmax with a high‐fat meal” value was 2 h.

In the case of `CO[C@@H]1[C@H](N(C)C(=O)c2ccccc2)C[C@H]2O[C@]1(C)n1c3ccccc3c3c4c(c5c6ccccc6n2c5c31)C(=O)NC4` [midostaurin], the “increase in exposure with food” value in data set [3] (high‐fat meal (900–1000 calories, 50% fat content)) is reported as 1.6 fold; in data set [3] (standard meal (450 calories, 25% fat content)), 1.2 fold.

Consider `CC(C)(C)c1cc(NC(=O)Nc2ccc(-c3cn4c(n3)sc3cc(OCCN5CCOCC5)ccc34)cc2)no1.Cl.Cl` [quizartinib, N‐(5‐tert‐butyl‐isoxazol‐3‐yl)‐N′‐{4‐[7‐(2‐morpholin‐4‐yl‐ethoxy)imidazo[2,1‐b][1,3]benzothiazol‐2‐yl]phenyl}urea dihydrochloride], for which the Plasma protein binding in data set [4] is listed as greater than 99%. Moreover, in data set [5], the “effective half‐life” value was 73 h. For the same molecule, in data set [6], the permeability entry is “low” and the solubility result is given as “low”. The “cytochrome P450 3A substrate status” value in the data set on cytochrome P450 3A is given as “substrate”. Besides, the tolerability entry in data set [7] (30‐mg single dose, fed and fasted healthy subjects) was “safe and well tolerated”. For the same molecule, in data set [7] (all subjects (N = 64)), the “subjects with maximum QTcF ≤450 milliseconds” value is given as 64 (100%) n (%) and the “subjects with maximum change from baseline QTcF ≤30 milliseconds” value is given as 98.4%. Further, in data set [7] (fasted (n = 34)), the “Number of TEAEs” value came to 16; the “Number of treatment‐related AEs” value turned out to be 6; the “Subjects with a treatment‐related AE, n (%)” value was 4 (11.8%) n (%) and 4 (11.8) n (%); the “Subjects with any TEAE by maximum severity: Mild, n (%)” value (from here on “Subjects with any TEAE … Mild, n (%)”) was 7 (20.6) n (%). For the same molecule, in data set [7] (fasted (n = 34)), the “Subjects with any TEAE by maximum severity: Moderate, n (%)” value (shortened to “Subjects with any TEAE … Moderate, n (%)”) is on record as 1 (2.9) n (%) and the “Subjects with any TEAE by maximum severity: Severe, n (%)” value (“Subjects with any TEAE … Severe, n (%)” below) is 1 (2.9) n (%). Further, the “Subjects with a TEAE, n (%)” value in data set [7] (fasted (n = 34), single 30-mg dose) was 9 (26.5%) n (%) and 9 (26.5) n (%). In data set [7] (fed (n = 30)), the “Number of TEAEs” value is recorded as 7; the “Number of treatment‐related AEs” value was determined as 4; the “Subjects with a treatment‐related AE, n (%)” value is 2 (6.7%) n (%) and 2 (6.7) n (%); the “Subjects with any TEAE … Mild, n (%)” value was 5 (16.7) n (%). In addition, in data set [7] (fed (n = 30)), the “Subjects with any TEAE … Moderate, n (%)” value is 0 n (%) and the “Subjects with any TEAE … Severe, n (%)” value is given as 0 n (%). For the same molecule, the “Subjects with a TEAE, n (%)” value in data set [7] (fed (n = 30), single 30-mg dose) was 5 (16.7%) n (%) and 5 (16.7) n (%). Moreover, in data set [7] (overall (N = 64)), the “Number of TEAEs” value was 23; the “Number of treatment‐related AEs” value came out at 10; the “Subjects with a treatment‐related AE, n (%)” value is 6 (9.4%) n (%) and 6 (9.4) n (%); the “Subjects with any TEAE … Mild, n (%)” value is recorded as 12 (18.8) n (%). For the same molecule, in data set [7] (overall (N = 64)), the “Subjects with any TEAE … Moderate, n (%)” value is 1 (1.6) n (%) and the “Subjects with any TEAE … Severe, n (%)” value is 1 (1.6) n (%). Moreover, in data set [7] (overall (N = 64), single 30-mg dose), the “Subjects with a TEAE, n (%)” value is on record as 14 (21.9) n (%). Also, the “serious AEs or discontinuations due to AEs” value in data set [7] (single 30-mg dose, fed and fasted) is listed as “no discontinuations due to adverse events occurred; also recorded: no serious AEs or discontinuations due to AEs”. Further, the “subjects with maximum change from baseline QTcF >30 milliseconds and ≤60 milliseconds” value in data set [7] (subject in the fasted group, percentage of N = 64) is 1 (1.6%) n (%). In addition, in [8], the “terminal elimination half‐life (t1/2)” value is given as “approximately 100 hours”.
